In paper PMC6128612, “Prodrugs for colon-restricted delivery: Design, synthesis, and in vivo evaluation of colony stimulating factor 1 receptor (CSF1R) inhibitors” (PLoS ONE, 2018):
Read-outs that look alike come from different tables or passages of the source.

Columns and labels:
[1] = Pharmacokinetic studies of active parent in mice; assay type: in vivo; conditions: mouse; for clearance: male, CD1, blood, read-out: Blood Clearance (total clearance) (converted); for clearance / Blood Clearance (unbound clearance, CLb/fub): 1 mg/kg IV, N = 2–3; for FaFg: 1 mg/kg, F/Fh (compound 6) or AUCoral/AUCip
Experimental: Male CD1 mice on Teklad Global Diet 2014 (Envigo Teklad, Madison, WI) (n = 2–3 per study) received a single IV, oral or intraperitoneal (IP) administration of compounds 1, 4, 5 or 6 at 1 mg/kg in 2:5:20:73 (v/v) DMSO:Tween 80:PEG-400:D5W dosed at 10 ml/kg. Serial blood samples were taken over 24h and frozen at −20°C until analysis. Pharmacokinetic parameters after IP or PO dosing were calculated by noncompartmental methods, while pharmacokinetic parameters after IV dosing were calculated by compartmental methods using WinNonlin (version 5.2, Certara USA Inc., St. Louis, MO). Mean parameters were determined from 1–3 separate studies. FaFg was determined as F/Fh (compound 6) or as the ratio of AUC after an oral dose to that after an IP dose (AUCoral/AUCip).

CSF1R = CSF1R (Homo sapiens, UniProt P07333); assay: CSF1R enzyme activity (TR-FRET binding displacement, kinase panel)
Chain of CSF1R (P07333 20-972): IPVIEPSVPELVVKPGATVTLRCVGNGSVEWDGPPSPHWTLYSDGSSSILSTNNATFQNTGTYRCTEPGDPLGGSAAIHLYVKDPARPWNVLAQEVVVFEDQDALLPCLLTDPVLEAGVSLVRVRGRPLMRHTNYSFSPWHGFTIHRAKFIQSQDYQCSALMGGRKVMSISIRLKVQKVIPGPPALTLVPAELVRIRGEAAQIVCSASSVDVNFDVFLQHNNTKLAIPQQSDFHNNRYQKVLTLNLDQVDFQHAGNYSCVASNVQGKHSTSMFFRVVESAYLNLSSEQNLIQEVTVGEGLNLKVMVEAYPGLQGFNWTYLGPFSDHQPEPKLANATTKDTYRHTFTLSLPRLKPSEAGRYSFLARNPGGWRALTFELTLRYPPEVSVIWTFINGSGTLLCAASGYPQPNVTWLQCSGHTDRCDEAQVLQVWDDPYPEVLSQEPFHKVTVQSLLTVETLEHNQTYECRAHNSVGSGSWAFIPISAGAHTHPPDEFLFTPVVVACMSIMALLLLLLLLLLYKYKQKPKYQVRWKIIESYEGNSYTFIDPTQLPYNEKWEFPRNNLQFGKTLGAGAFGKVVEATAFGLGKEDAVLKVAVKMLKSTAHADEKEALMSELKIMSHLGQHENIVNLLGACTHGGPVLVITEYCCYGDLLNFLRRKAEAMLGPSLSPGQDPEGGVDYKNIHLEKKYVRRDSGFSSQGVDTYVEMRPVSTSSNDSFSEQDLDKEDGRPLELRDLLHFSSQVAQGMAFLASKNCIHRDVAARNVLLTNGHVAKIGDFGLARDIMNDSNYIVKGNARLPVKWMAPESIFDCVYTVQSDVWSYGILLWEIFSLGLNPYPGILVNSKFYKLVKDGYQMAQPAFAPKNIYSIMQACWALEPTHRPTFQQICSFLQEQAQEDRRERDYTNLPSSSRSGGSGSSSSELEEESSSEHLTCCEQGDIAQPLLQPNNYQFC
Experimental: TR-FRET-based binding displacement studies using active site probes were used to assess kinome selectivity of inhibitor molecules.[54] The concentrations of components for each purified kinase were based on optimized conditions with ranges as follows: kinases (1.25–12.5 nM), Oregon Green-labeled fluorescent probes (2x KD of probe to the particular kinase; range of 1–200 nM; in-house), terbium anti-His or anti-GST antibody (0.5–2 nM). The reaction buffer was diluted to 1x using ddH2O and contained 1 mM DTT.
Compounds were typically tested from 0.0001 to 10 μM in 10x dilutions. Reactions were carried out in a 20 μL volume in 384-well plates by combining kinase, probe, antibody, and test compound and allowing the reaction to come to equilibrium (incubation of 2 h). TR-FRET was then measured on a PerkinElmer Envision plate reader (excitation at 340 nm; emission at 520 and 495 nm). Competition by the test compound versus the fluorescent probe for the ATP binding site of the kinase was quantified by calculating the IC50 value based on a four-parameter logistic curve fit.

[2] = tested on: Mouse bone marrow derived macrophages (BMDM); assay: Mouse macrophage differentiation assay (CSF-induced); assay type: cell-based
Experimental: Mouse bone marrow derived macrophages (BMDM) were isolated as previously described[53] from C57BL/6 female mice. The isolated cells were washed using standard growth medium (RPMI (Gibco cat# 11875–093) with 2 mM L-glutamine (Gibco cat# 25033), 1% Pen/Strep (Gibco cat# 15140), 10% heat inactivated fetal bovine serum (HI-FBS, Gibco cat# 10438), and 0.1% beta-mercaptoethanol (BME, Gibco cat# 21985–023)), and filtered through a […] cell strainer (Falcon cat# 352360). Cells were counted, re-suspended in growth medium, and plated at 1x10^5 viable cells per well in a 96 well plate (Corning cat# 3603). Inhibitors were added at various concentrations to the cells, and incubated at 37°C/5% CO2 for 30 minutes. Recombinant mouse macrophage colony stimulating factor (M-CSF, R&D cat# 416-ML-010) was added to the plates at a final concentration of […]. Plates were transferred to a 37°C/5% CO2 incubator for 5 days. On the fifth day, supernatant was removed from each well and Cell Titer Glo (Promega cat#G7571) was added. Plates were covered from the light and incubated at room temperature for 10 minutes before reading the luminescence on an EnVision plate reader (PerkinElmer).

[3] = Per rectal versus oral dosing of active parent: colon, liver, plasma exposure; assay type: in vivo; conditions: mouse
Experimental: Prior to dosing, mice were anaesthetized with Isoflurane and fecal material was removed from colons by irrigating with 0.5 mL of PBS using a syringe fitted with a 22 gauge flexible gavage needle. After a 20 min wake up period, mice were again anesthetized and drug was administered in a volume of 0.1–0.2 mL using a syringe fitted with a 22 gauge flexible gavage needle. Mice were then placed in the anesthesia chamber for 40 min in a supine position with hind end elevated to ensure drug remained in colon. After 40 min, mice were removed from the chamber and blood sampling over time (via tail nick) began.
(§1) Active Parent–Male CD1 mice (N = 3) received a single oral administration of compound 1 at 30 mg/kg prepared as a nanosuspension in 2% HPC-SL, 0.2% SDS in water and dosed at 10 ml/kg. Active Parent Prodrugs–Male CD1 mice or female C57BL/6 mice (N = 3) received a single oral adminstration of prodrug at 30 mg/kg active parent equivalent in either 10% Cremophor EL + 90% 1% Na-carboxymethylcellulose (NaCMC) at 10 ml/kg or as a nanosuspension in 2% HPC-SL, 0.2% SDS in water at 10 ml/kg.Blood samples were taken over 11 hours, and colon samples were taken at 3, 6 and/or 11 hours post dose. Mice received either Teklad Global Diet 2014 (Envigo Teklad, Madison, WI or LabDiet #5010 (LabDiet, St. Louis, MO).
(§2) Due to the inherent risk of fecal or PR-dosed material contaminating true levels of colon tissue exposure, careful flushing of colon tissue for drug analysis was required. Upon necropsy, a section of mouse colon was removed, and flushed with PBS until no visible fecal material was observed. Subsequently, a 1–2 cm section of colon was blotted dry, weighed and snap-frozen in liquid nitrogen.
(§3) Colon tissue (~50 mg) was diluted 10x in Veterinary Sterile Water for Irrigation (USP by Abbott), then 1.4 mm zirconium oxide beads were added and tissue was homogenized using an Omni Bead Ruptor 24 (Omni International, Kennesaw, GA). Aliquots of colon homogenate samples and a set of colon standards were pipetted in 96-well plates and subjected to protein precipitation extraction (with acetonitrile + internal standard) on a Microlab Star robot (Hamilton Robotics, Reno, NV). Plates were then mixed on a MixMate (Eppendorf, Hamburg, Germany) for 1 min at 1600 rpm and centrifuging for 5 min at 4000 rpm in 5810 R Centrifuge (Eppendorf, Hamburg, Germany). Supernatant was transferred into new plates and diluted with LC-MS/MS mobile phase.
(§4) Spiked standards were prepared in the appropriate matrices. All unknown samples and spiked standards were combined with acetonitrile containing internal standard, vortexed, and centrifuged to pellet the proteins. Supernatants were used for subsequent analysis by LC-MS/MS. The mobile phase consisted of acetonitrile with 0.1% formic acid, and water with 0.1% formic acid at a flow rate of 0.8 mL/min. Analytes were separated using reverse phase chromatography with a fast gradient on a 30 x 2.1 mm Fortis C18 Pace […] column, prior to analysis on a Sciex API5500™ mass spectrometer. Peak areas were determined using Sciex Analyst™ 1.6 software. Actual concentrations were calculated by regression analysis of the peak area ratio (parent / internal standard) of the spiked standards versus concentration.

PAMPA permeability = assay type: in vitro ADME
[4] = Oral administration of prodrugs to mice: colon, plasma, feces exposure; assay type: in vivo; conditions: mouse; for Prodrug levels in plasma after oral dosing / Prodrug plasma concentration, fold lower than active parent 1: dose equal to 30 mg/kg of 1; for Plasma versus colon levels of active parent 1 after oral prodrug: dose equal to 30 mg/kg of 1, 3 and 11 h
Experimental: as §1, §2, §3, §4

[5] = Plasma stability in vitro; assay type: in vitro ADME, mouse
[6] = PK experiment dosing hemi-succinate 15 IV or PO; assay type: in vivo, mouse; conditions: IV or PO 1 mg/kg; 0.5 to 12 h
[7] = CSF-induced mouse macrophage differentiation, mean from n ≥3 experiments, read-out: Mouse Mac EC50
[8] = Mus musculus, adjusted for binding in 10% FBS, read-out: Cellular EC50 corrected for binding in 10% FBS

Row | clearance [1] [L/h/kg] | Blood Clearance (unbound clearance, CLb/fub) [1] [L/h/kg] | FaFg [1] [%] | IC50 (CSF1R) [µM] | EC50 [2, 7] [µM] | EC50 [2, 8] [mg/L] | Papp (PAMPA permeability) [nm/s] | Prodrug levels in plasma after oral dosing [4] | SMILES | other results
1 | 4.5 | 150 | 43 | < 0.01 | 0.113 | 0.022 | 156 |  | O[C@H]1CC[C@H](n2cc(Nc3nc(C4CCCCC4)cn4ncnc34)cn2)CC1 [Compound 1, (1r,4r)-4-(4-((6-Cyclohexyl-[1,2,4]triazolo[1,5-a]pyrazin-8-yl)amino)-1H-pyrazol-1-yl)cyclohexanol] | Kp at 1 h ([3]; colon and plasma, other: per rectal (PR), PR 30 mg/kg, 1 h, read-out: colon:plasma ratio (unbound)): 22; Kp at 3 h ([3]; male, CD1, colon and plasma, PO 30 mg/kg, 3 h, read-out: colon:plasma ratio (unbound)): 0.5; Mean colon unbound Cmax ([3]; PO 30 mg/kg, 3 h): 9 ng/g; colon:liver ratio (unbound) ([3]; PO 30 mg/kg, 3 h): 0.34 x; Mean colon unbound Cmax ([3]; PR 30 mg/kg, 1 h): 67 ng/g; colon:liver ratio (unbound) ([3]; PR 30 mg/kg, 1 h): 7 x; Compound in the colon at the terminal time point ([3]; PR 30 mg/kg, 11 h): Lack of compound detection in the colon; 1 h colon exposure versus cellular EC50 ([3]; PR 30 mg/kg, unbound): exceeded the cellular EC50; 1 h plasma exposure exceeding cellular EC50 ([3]; PR 30 mg/kg, unbound): did not
2 |  |  |  |  |  |  |  | no measureable plasma levels | OCC1OC(OC2CCC(n3cc(Nc4nc(C5CCCCC5)cn5ncnc45)cn3)CC2)C(O)C(O)C1O [Compound 10, (2S,3R,4S,5S,6R)-2-(((1r,4s)-4-(4-((6-cyclohexyl-[1,2,4]triazolo[1,5-a]pyrazin-8-yl)amino)-1H-pyrazol-1-yl)cyclohexyl)oxy)-6-(hydroxymethyl)tetrahydro-2H-pyran-3,4,5-triol] | 
3 | 6.5 | 102 | 18 | < 0.01 | 0.245 | 0.019 | 141 |  | OCCn1cc(Nc2nc(C3CCCCC3)cn3ncnc23)cn1 [Compound 4, 2-(4-((6-Cyclohexyl-[1,2,4]triazolo[1,5-a]pyrazin-8-yl)amino)-1H-pyrazol-1-yl)ethanol] | 
4 |  |  |  |  |  |  |  |  | O=C(O)CCC(=O)O[C@H]1CC[C@H](n2cc(Nc3nc(C4CCCCC4)cn4ncnc34)cn2)CC1 [Compound 15, 4-(((1r,4r)-4-(4-((6-Cyclohexyl-[1,2,4]triazolo[1,5-a]pyrazin-8-yl)amino)-1H-pyrazol-1-yl)cyclohexyl)oxy)-4-oxobutanoic acid] | CSF1R enzyme activity inhibition (CSF1R): able to inhibit CSF1R enzyme activity; Stability in plasma [5]: not stable in mouse plasma in vitro; Plasma levels of 15 [6]: no detectable plasma levels of 15
5 | 1 | 19 | 35 | < 0.01 | 0.196 | 0.042 | 146 |  | O=C(O)[C@H]1CC[C@H](n2cc(Nc3nc(C4CCCCC4)cn4ncnc34)cn2)CC1 [Compound 6] | 
6 | 4.8 | 197 | 32 | < 0.01 | 0.104 | 0.021 | 87 |  | CC(C)(O)CCn1cc(Nc2nc(C3CCCCC3)cn3ncnc23)cn1 [Compound 5, 4-(4-((6-Cyclohexyl-[1,2,4]triazolo[1,5-a]pyrazin-8-yl)amino)-1H-pyrazol-1-yl)-2-methylbutan-2-ol] | 
7 |  |  |  |  |  |  |  |  | OCC1OC(OC2CCC(n3cc(Nc4nc(C5CCCCC5)cn5ncnc45)cn3)CC2)C(O)C(O)C1O [Compound 9, (2R,3R,4S,5S,6R)-2-(((1r,4r)-4-(4-((6-Cyclohexyl-[1,2,4]triazolo[1,5-a]pyrazin-8-yl)amino)-1H-pyrazol-1-yl)cyclohexyl)oxy)-6-(hydroxymethyl)tetrahydro-2H-pyran-3,4,5-triol] | Prodrug plasma concentration, fold lower than active parent 1 [4]: ~ 100 x
8 |  |  |  |  |  |  |  | no measureable plasma levels | O=C(O)C1OC(OC2CCC(n3cc(Nc4nc(C5CCCCC5)cn5ncnc45)cn3)CC2)C(O)C(O)C1O [Compound 11, (2S,3S,4S,5R,6R)-6-(((1r,4r)-4-(4-((6-Cyclohexyl-[1,2,4]triazolo[1,5-a]pyrazin-8-yl)amino)-1H-pyrazol-1-yl)cyclohexyl)oxy)-3,4,5-trihydroxytetrahydro-2H-pyran-2-carboxylic acid] | 
9 |  |  |  |  |  |  |  |  | CC(C)C(N)C(=O)OC1CCC(n2cc(Nc3nc(C4CCCCC4)cn4ncnc34)cn2)CC1 [Compound 8, (R)-(1r,4r)-4-(4-((6-Cyclohexyl-[1,2,4]triazolo[1,5-a]pyrazin-8-yl)amino)-1H-pyrazol-1-yl)cyclohexyl 2-amino-3-methylbutanoate] | Prodrug plasma concentration, fold lower than active parent 1 [4]: ~ 10 x; Plasma versus colon levels of active parent 1 after oral prodrug [4]: significantly higher plasma versus colon drug levels

Row | SMILES | clearance [1] [L/h/kg] | Blood Clearance (unbound clearance, CLb/fub) [1] [L/h/kg] | FaFg [1] [%] | IC50 (CSF1R) [µM] | EC50 [2, 7] [µM] | EC50 [2, 8] [mg/L] | Papp (PAMPA permeability) [nm/s] | Prodrug levels in plasma after oral dosing [4] | other results
10 | CN(C)CC(=O)OC1CCC(n2cc(Nc3nc(C4CCCCC4)cn4ncnc34)cn2)CC1 (stereo not drawn) [Compound 7, (1r,4r)-4-(4-((6-Cyclohexyl-[1,2,4]triazolo[1,5-a]pyrazin-8-yl)amino)-1H-pyrazol-1-yl)cyclohexyl 2-(dimethylamino)acetate] |  |  |  |  |  |  |  | no prodrug levels were measurable in plasma | Stability in plasma [5]: not stable in plasma; Plasma versus colon levels of active parent 1 after oral prodrug [4]: significantly higher plasma versus colon drug levels
